The melting point is the temperature, or range, at which the solid turns liquid.

pIC50: −log10 of the molar value. Like-named read-outs stand apart in the source and are kept apart here. Where only a bound is given, the exact number is not on record here.

The target in series [1] is T1, purified recombinant Cdc25-C enzyme (MBP-Cdc25C protein) (Homo sapiens, UniProt P30307).
T1 construct: made in house
T1 sequence (P30307 1-473): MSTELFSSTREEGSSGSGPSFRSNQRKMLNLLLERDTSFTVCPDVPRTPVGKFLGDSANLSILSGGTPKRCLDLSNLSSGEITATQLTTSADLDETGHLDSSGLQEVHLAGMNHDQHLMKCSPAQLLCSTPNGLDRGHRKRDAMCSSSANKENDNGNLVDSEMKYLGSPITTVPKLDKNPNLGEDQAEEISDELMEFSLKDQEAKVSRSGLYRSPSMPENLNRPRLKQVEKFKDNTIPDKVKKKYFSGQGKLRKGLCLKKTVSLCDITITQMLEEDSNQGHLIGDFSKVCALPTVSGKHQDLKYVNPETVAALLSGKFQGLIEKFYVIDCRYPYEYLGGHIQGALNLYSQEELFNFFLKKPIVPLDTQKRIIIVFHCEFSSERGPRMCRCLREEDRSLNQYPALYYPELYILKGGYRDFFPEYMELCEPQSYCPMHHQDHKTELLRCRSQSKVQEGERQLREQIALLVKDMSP
The experiment in a line: Phosphatase activity of the purified recombinant Cdc25C enzyme (OMFP dephosphorylation, fluorescence). Format: biochemical. As to conditions: OMFP 500 μM, 4 hours at 30° C. Here is the method: The phosphatase activity of the MBP-Cdc25C protein is evaluated through its dephosphorylation of 3-O-methylfluorescein-phosphate (OMFP) to form 3-O-methylfluorescein (OMF), determining the fluorescence of the reaction product at 475 nm. This assay can be used to identify inhibitors of the recombinant Cdc25 enzyme. The preparation of the MBP-Cdc25C fusion protein is described in patent application PCT WO 01/44467.
The reaction is performed in 384-well plates in a final volume of 50 μl. The MBP-Cdc25C protein (prepared as described hereinabove) is stored in the following elution buffer: 20 mM Tris-HCl pH 7.4; 250 mM NaCl; 1 mM EDTA; 1 mM dithiothreitol (DTT); 10 mM maltose. It is diluted to a concentration of 60 μM in the following reaction buffer: 50 mM Tris-HCl pH 8.2; 50 mM NaCl; 1 mM DTT; 20% glycerol. The background noise is determined using with the buffer without addition of the enzyme. The products are tested at decreasing concentrations from 40 μM. The reaction is initiated by the addition of a solution OMFP to a final concentration of 500 μM (prepared immediately before use from a 12.5 mM stock solution in 100% DMSO (Sigma #M2629)). After 4 hours at 30° C. in a disposable 384-well plate, the fluorescence measured at OD 475 nm is read on a Victor^2 plate reader (EGG-Wallac). The concentration that produces 50% inhibition of the enzyme reaction is calculated from three independent experiments. Only the values that fall within the linear part of the sigmoid curve are used for the linear regression analysis.

The subject of series [2] is DU145 (human prostate cancer cells). The experiment in a line: Anti-proliferative activity on DU-145 cell line (WST1 colorimetric test). Format: cell-based. The conditions noted are these: read-out: IC50 on the proliferation of the DU-145 cell line. Here is the method: By way of an example, the effect of treating two human cell lines Mia-Paca2 and DU145 with the compounds of the examples described hereinbefore will be studied. The cell lines DU145 (human prostate cancer cells) and Mia-PaCa2 (human pancreas cancer cells) were obtained from the American Tissue Culture Collection (Rockville, Md., USA). A 96-well plate was inoculated on day 0 with cells placed in 80 μl of Dulbecco's modified Eagle's medium (Gibco-Brl, Cergy-Pontoise, France) with 10% heat-inactivated foetal calf serum (Gibco-Brl, Cergy-Pontoise, France), 50000 units/1 of penicillin and 50 mg/l of streptomycin (Gibco-Brl, Cergy-Pontoise, France), and 2 mM of glutamine (Gibco-Brl, Cergy-Pontoise, France). The cells were treated on day 1 with increasing concentrations of each test compound up to 10 μM for 96 hours. At the end of this period, cell proliferation is quantified by means of a colorimetric test based on cleavage of the tetrazolium salt WST1 by the mitochondrial dehydrogenases in the viable cells, resulting in formation of formazan (Boehringer Mannheim, Meylan, France). These tests are performed in duplicate with 8 determinations per concentration tested. For each compound to be tested, the values within the linear part of the sigmoid curve were subjected to linear regression analysis and used to estimate the IC50 inhibitory concentration. The products are solubilised in dimethylsulfoxide (DMSO) at a concentration of 10^−2 M and used in culture with a final DMSO concentration of 0.1%.

Regarding `CN(CCNC(=O)N[C@@H]1CCc2ccccc2C1)CCNc1cc(N2CCCC2)nc(N2CCCC2)n1` [Example 11], the pIC50 in series [1] is at least 5.30; in series [2] (DU-145, 96 hours treatment), at least 5.30.

`CN(CCNC(=S)Nc1ccc(F)cc1F)CCNc1cc(N2CCCC2)nc(N2CCCC2)n1` [Example 40, N-(2,4-difluorophenyl)-N′-{2-[{2-[(2,6-dipyrrolidin-1-ylpyrimidin-4-yl)amino]ethyl}(methyl)amino]ethyl}thiourea]: the melting point was 124 to 126 °C. Besides, in series [1], the pIC50 is at least 6.00.

`CN(CCNC(=S)Nc1cc(F)cc(F)c1)CCNc1cc(N2CCCC2)nc(N2CCCC2)n1` [Example 41, N-(3,5-difluorophenyl)-N′-{2-[{2-[(2,6-dipyrrolidin-1-ylpyrimidin-4-yl)amino]ethyl}(methyl)amino]ethyl}thiourea] had a melting point of 124 to 126 °C. Further, in series [1], the pIC50 was at least 5.30.

Molecule `CN(CCNC(=S)Nc1ccc([N+](=O)[O-])cc1)CCNc1cc(N2CCCC2)nc(N2CCCC2)n1` [Example 43, N-{2-[{2-[(2,6-dipyrrolidin-1-ylpyrimidin-4-yl)amino]ethyl}(methyl)amino]ethyl}-N′-(4-nitrophenyl)thiourea] registered a melting point of 146 to 148 °C. Further, the pIC50 in series [1] was at least 6.00.

Take `CN(CCNC(=S)Nc1ccc(Oc2ccc([N+](=O)[O-])cc2)cc1)CCNc1cc(N2CCCC2)nc(N2CCCC2)n1` [Example 45, N-{2-[{2-[(2,6-dipyrrolidin-1-ylpyrimidin-4-yl)amino]ethyl}(methyl)amino]ethyl}-N′-[4-(4-nitrophenoxy)phenyl]thiourea]: the pIC50 in series [1] is at least 5.30; in series [2] (DU-145, 96 h, 96 hours treatment), at least 5.30.

Consider `CN(CCNC(=S)Nc1cccc([N+](=O)[O-])c1)CCNc1cc(N2CCCC2)nc(N2CCCC2)n1` [Example 49, N-{2-[{2-[(2,6-dipyrrolidin-1-ylpyrimidin-4-yl)amino]ethyl}(methyl)amino]ethyl}-N′-(3-nitrophenyl)thiourea], for which the melting point lay within 125 to 127 °C. In addition, in series [1], the pIC50 is at least 6.00.

In turn, `Cc1cc(C)nc(NS(=O)(=O)c2ccc(NC(=S)NCCN(C)CCNc3cc(N4CCCC4)nc(N4CCCC4)n3)cc2)n1` [Example 50, N-(4,6-dimethylpyrimidin-2-yl)-4-{[({2-[{2-[(2,6-dipyrrolidin-1-ylpyrimidin-4-yl)amino]ethyl}(methyl)amino]ethyl}amino)carbonothioyl]amino}benzenesulfonamide] yielded a melting point of 129 °C. Further, the pIC50 in series [1] is at least 6.00.

In turn, `CN(CCNC(=S)Nc1ccc(Sc2ncc(C(F)(F)F)cc2Cl)cc1)CCNc1cc(N2CCCC2)nc(N2CCCC2)n1` [Example 52, N-(4-{[3-chloro-5-(trifluoromethyl)pyridin-2-yl]thio}phenyl)-N′-{2-[{2-[(2,6-dipyrrolidin-1-ylpyrimidin-4-yl)amino]ethyl}(methyl)amino]ethyl}thiourea] came in with a melting point of 97 to 99 °C. Also, in series [1], the pIC50 is at least 6.00.

Take `CN(CCNC(=S)Nc1ccc(Cl)c(C(F)(F)F)c1)CCNc1cc(N2CCCC2)nc(N2CCCC2)n1` [Example 54, N-[4-chloro-3-(trifluoromethyl)phenyl]-N′-{2-[{2-[(2,6-dipyrrolidin-1-ylpyrimidin-4-yl)amino]ethyl}(methyl)amino]ethyl}thiourea]: the melting point lay in the range of 117 to 119 °C. Besides, the pIC50 in series [1] was at least 5.30.

In the case of `CN(CCNC(=S)Nc1ccc(Cl)c(Cl)c1)CCNc1cc(N2CCCC2)nc(N2CCCC2)n1` [Example 55, N-(3,4-dichlorophenyl)-N′-{2-[{2-[(2,6-dipyrrolidin-1-ylpyrimidin-4-yl)amino]ethyl}(methyl)amino]ethyl}thiourea], the melting point fell in the range of 148 to 150 °C. In addition, the pIC50 in series [1] was at least 5.30.

With `CN(CCNC(=S)Nc1ccc(Cl)c(F)c1)CCNc1cc(N2CCCC2)nc(N2CCCC2)n1` [Example 56, N-(4-chloro-3-fluorophenyl)-N′-{2-[{2-[(2,6-dipyrrolidin-1-ylpyrimidin-4-yl)amino]ethyl}(methyl)amino]ethyl}thiourea], the melting point lay in the range of 146 to 148 °C. Further, the pIC50 in series [1] was at least 5.30.

`S=C(NCCCCCNc1cc(N2CCCC2)nc(N2CCCC2)n1)Nc1ccc(Cl)cc1` [Example 58, N-(4-chlorophenyl)-N′-{5-[(2,6-dipyrrolidin-1-ylpyrimidin-4-yl)amino]pentyl}thiourea] displayed a melting point of 80 to 82 °C. The pIC50 in series [1] was at least 5.30.

As for `CNS(=O)(=O)c1ccc(NC(=S)NCCN(C)CCNc2cc(N3CCCC3)nc(N3CCCC3)n2)cc1` [Example 59, 4-{[({2-[{2-[(2,6-dipyrrolidin-1-ylpyrimidin-4-yl)amino]ethyl}(methyl)amino]ethyl}amino)carbonothioyl]amino}-N-methylbenzenesulfonamide], the melting point fell in the range of 102 to 104 °C. Also, in series [1], the pIC50 is at least 6.00.

On to `CN(CCNC(=S)Nc1ccc(S(N)(=O)=O)cc1)CCNc1cc(N2CCCC2)nc(N2CCCC2)n1` [Example 61, 4-{[({2-[{2-[(2,6-dipyrrolidin-1-ylpyrimidin-4-yl)amino]ethyl}(methyl)amino]ethyl}amino)carbonothioyl]amino}benzenesulfonamide], for which the melting point worked out at 140 °C. In addition, in series [1], the pIC50 was at least 6.00.

The molecule `CN(CCNC(=S)Nc1ccc(F)c(F)c1)CCNc1cc(N2CCCC2)nc(N2CCCC2)n1` [Example 67, N-(3,4-difluorophenyl)-N′-{2-[{2-[(2,6-dipyrrolidin-1-ylpyrimidin-4-yl)amino]ethyl}(methyl)amino]ethyl}thiourea] returned a melting point of 133 to 135 °C. Also, the pIC50 in series [1] is at least 6.00.

Consider `CN(CCNC(=S)Nc1ccc(C#N)cc1)CCNc1cc(N2CCCC2)nc(N2CCCC2)n1` [Example 77, N-(4-cyanophenyl)-N′-{2-[{2-[(2,6-dipyrrolidin-1-ylpyrimidin-4-yl)amino]ethyl}(methyl)amino]ethyl}thiourea], for which the melting point lay within 107 to 109 °C. Further, in series [1], the pIC50 is at least 6.00.

Consider `COc1ccc(C(=O)NC(=S)NCCN(C)CCNc2cc(N3CCCC3)nc(N3CCCC3)n2)cc1` [Example 80, N-[({2-[{2-[(2,6-dipyrrolidin-1-ylpyrimidin-4-yl)amino]ethyl}(methyl)amino]ethyl}amino)carbonothioyl]-4-methoxybenzamide], for which the melting point lay within 171 to 173 °C. Besides, in series [1], the pIC50 was at least 5.30.

`CN(CCNC(=NC#N)Nc1ccc(Cl)cc1)CCNc1cc(N2CCCC2)nc(N2CCCC2)n1` [Example 81, N-(4-chlorophenyl)-N″-cyano-N′-{2-[{2-[(2,6-dipyrrolidin-1-ylpyrimidin-4-yl)amino]ethyl}(methyl)amino]ethyl}guanidine] showed a melting point of 120 to 122 °C. Moreover, in series [1], the pIC50 is at least 6.00.

As to `CN(CCNC(=O)c1ccc(C(=O)c2ccccc2)cc1)CCNc1cc(N2CCCC2)nc(N2CCCC2)n1` [Example 83, 4-benzoyl-N-{2-[{2-[(2,6-dipyrrolidin-1-ylpyrimidin-4-yl)amino]ethyl}(methyl)amino]ethyl}benzamide], the melting point fell in the range of 119 to 121 °C. In series [1], the pIC50 was at least 5.30.

Values taken from patent publication US20100137275A1 (IPSEN PHARMA S.A.S., priority 2007, published 2010).
